In patent US10485800B2, “Mixed lineage kinase inhibitors for HIV/AIDS therapies” (UNIVERSITY OF ROCHESTER, priority 2012, dated 2019):

Each molecule was assayed against MLK3 (Homo sapiens (Human), UniProt Q16584) (assay: Radiometric filter plate MLK3 assay). Details: 2 μM cold ATP (Km), 1 μM inactive MKK7b, twenty minute incubation; read-out: MK3 IC50.
Type: biochemical
Description: After a twenty minute incubation, the reactions were washed through filter plates and read on a scintillation counter. Results are shown in Table 9 below, in which +++ indicates ≤0.1 μM, ++ indicates >0.1 μM and ≤1 μM, and + indicates >1 μM.

MLK3, sequence (Q16584 whole entry): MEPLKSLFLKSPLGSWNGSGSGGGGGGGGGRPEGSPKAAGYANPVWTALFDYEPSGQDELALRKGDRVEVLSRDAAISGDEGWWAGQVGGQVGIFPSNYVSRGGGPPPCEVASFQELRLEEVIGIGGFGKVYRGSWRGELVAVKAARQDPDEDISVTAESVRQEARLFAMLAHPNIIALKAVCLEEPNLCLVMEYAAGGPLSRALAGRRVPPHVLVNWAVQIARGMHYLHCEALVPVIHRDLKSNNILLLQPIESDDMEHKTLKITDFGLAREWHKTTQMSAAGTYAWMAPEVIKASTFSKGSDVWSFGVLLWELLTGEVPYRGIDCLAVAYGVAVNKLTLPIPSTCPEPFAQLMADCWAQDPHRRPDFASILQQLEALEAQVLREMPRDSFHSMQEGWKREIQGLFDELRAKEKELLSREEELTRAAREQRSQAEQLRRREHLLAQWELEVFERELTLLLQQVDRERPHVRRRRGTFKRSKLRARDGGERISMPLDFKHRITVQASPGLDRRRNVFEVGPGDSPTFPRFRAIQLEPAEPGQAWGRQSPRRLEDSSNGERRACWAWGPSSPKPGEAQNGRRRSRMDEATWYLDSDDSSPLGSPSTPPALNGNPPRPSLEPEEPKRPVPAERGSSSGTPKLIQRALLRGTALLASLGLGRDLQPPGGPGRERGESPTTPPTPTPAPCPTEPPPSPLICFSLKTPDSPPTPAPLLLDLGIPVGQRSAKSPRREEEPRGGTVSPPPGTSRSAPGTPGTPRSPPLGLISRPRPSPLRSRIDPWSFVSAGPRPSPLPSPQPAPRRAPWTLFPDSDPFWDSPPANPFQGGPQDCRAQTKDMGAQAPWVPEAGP

Question: For `CCOC(=O)N1CCN(Cc2ccc(-c3cnc4[nH]cc(-c5ccc6[nH]ccc6c5)c4c3)cc2)CC1` [Example 193], which IC50 is on record?
Answer: < 100 nM

Question: `O=C(CC1CC1)N1CCN(Cc2ccc(-c3cnc4[nH]cc(-c5ccc6[nH]ccc6c5)c4c3)cc2)CC1` [Example 203] was tested. Which IC50 did it give?
Answer: < 100 nM

Question: With `CN1CCN(Cc2ccc(-c3c[nH]c4ncc(-c5ccc6[nH]ccc6c5)cc34)cc2)CC1` [Example 163, 5-(1H-indol-5-yl)-3-[4-(4-methyl-piperazin-1-ylmethyl)-phenyl]-1H-pyrrolo[2,3-b]pyridine] as the molecule, how does the IC50 read?
Answer: > 1000 nM

Question: `COc1cc(-c2cnc3[nH]c(=O)n(-c4cnc5[nH]ccc5c4)c3n2)cc(OC)c1OC` [Example 112, 1-(1H-pyrrolo[2,3-b]pyridin-5-yl)-6-(3,4,5-trimethoxyphenyl)-1H-imidazo[4,5-b]pyrazin-2(3H)-one] was tested. Which IC50 did it give?
Answer: < 100 nM

Question: `COc1cc(-c2cnc3[nH]cc(-c4ccc(N)cc4)c3c2)cc(OC)c1OC` [Example 15, 4-(5-(3,4,5-trimethoxyphenyl)-1H-pyrrolo[2,3-b]pyridin-3-yl)aniline] was tested. Which IC50 did it give?
Answer: < 100 nM

Question: For `CN1CCN(Cc2cccc(-c3cnc4[nH]cc(-c5ccc(C(N)=O)cc5)c4c3)c2)CC1` [Example 156, 4-{5-[3-(4-methyl-piperazin-1-ylmethyl)-phenyl]-1H-pyrrolo[2,3-b]pyridin-3-yl}-benzamide], which IC50 is on record?
Answer: < 100 nM

Question: `CC1CN(Cc2ccc(-c3cnc4[nH]cc(-c5ccc6[nH]ccc6c5)c4c3)cc2)CCN1C` (stereo not shown) [Example 189, 5-(4-((3,4-dimethylpiperazin-1-yl)methyl)phenyl)-3-(1H-indol-5-yl)-1H-pyrrolo[2,3-b]pyridine] was tested. Which IC50 did it give?
Answer: < 100 nM

Question: With `COc1ccc(-c2cnc3[nH]c(=O)n(C4CCCC4)c3n2)cc1OC` [Example 75, 1-cyclopentyl-6-(3,4-dimethoxyphenyl)-1H-imidazo[4,5-b]pyrazin-2(3H)-one] as the molecule, how does the IC50 read?
Answer: > 1000 nM

Question: For `O=c1[nH]c2ncc(-c3cc(Cl)cc(Cl)c3)nc2n1CC1CC1` [Example 80, 1-(cyclopropylmethyl)-6-(3,5-dichlorophenyl)-1H-imidazo[4,5-b]pyrazin-2(3H)-one], which IC50 is on record?
Answer: > 1000 nM

Question: For `COc1ccc(-n2c(=O)[nH]c3ncc(-c4ccncc4)nc32)cc1` [Example 71, 1-(4-methoxyphenyl)-6-(pyridin-4-yl)-1H-imidazo[4,5-b]pyrazin-2(3H)-one], which IC50 is on record?
Answer: > 1000 nM

Question: Which IC50 does the source give for `COc1cc(-c2cnc3c(c2)C(=Cc2ccccc2)C(=O)N3)cc(OC)c1OC` [Example 130, 3-benzylidene-5-(3,4,5-trimethoxy-phenyl)-1,3-dihydro-pyrrolo[2,3-b]pyridin-2-one] here?
Answer: > 1000 nM

Question: Which IC50 does the source give for `Cn1ccc2cc(-n3c(=O)[nH]c4ncc(-c5ccc(O)cc5)nc43)ccc21` [Example 42, 6-(4-hydroxyphenyl)-1-(1-methyl-1H-indol-5-yl)-1H-imidazo[4,5-b]pyrazin-2(3H)-one] here?
Answer: > 1000 nM

Question: Which IC50 does the source give for `CCS(=O)(=O)N1CCN(Cc2ccc(-c3cnc4[nH]cc(-c5ccc6[nH]ccc6c5)c4c3)cc2)CC1` [Example 199] here?
Answer: < 100 nM

Question: `COc1cc(-c2cnc3[nH]cc(-c4ccc5[nH]ccc5c4)c3c2)ccc1OCCN1CCNCC1` [Example 34, 3-(1H-indol-5-yl)-5-(3-methoxy-4-(2-(piperazin-1-yl)ethoxy)phenyl)-1H-pyrrolo[2,3-b]pyridine] was tested. Which IC50 did it give?
Answer: < 100 nM

Question: For `O=c1[nH]c2ncc(-c3ccc(N4CCOCC4)cc3)nc2n1-c1ccc2[nH]ncc2c1` [Example 89, 1-(1H-indazol-5-yl)-6-(4-morpholinophenyl)-1H-imidazo[4,5-b]pyrazin-2(3H)-one], which IC50 is on record?
Answer: > 1000 nM

Question: Which IC50 does the source give for `Nc1ccc(-c2cnc3[nH]cc(-c4ccc(F)c(Cl)c4)c3c2)cn1` [Example 29, 5-(3-(3-chloro-4-fluorophenyl)-1H-pyrrolo[2,3-b]pyridin-5-yl)pyridin-2-amine] here?
Answer: > 1000 nM

Question: With `O=c1[nH]c2ncc(-c3ccc(O)cc3)nc2n1-c1ccc2cn[nH]c2c1` [Example 92, 6-(4-hydroxyphenyl)-1-(1H-indazol-6-yl)-1H-imidazo[4,5-b]pyrazin-2(3H)-one] as the molecule, how does the IC50 read?
Answer: > 1000 nM

Question: With `Cc1cc2cc(-n3c(=O)[nH]c4ncc(-c5cc(Cl)cc(Cl)c5)nc43)ccc2[nH]1` [Example 73, 6-(3,5-dichlorophenyl)-1-(2-methyl-1H-indol-5-yl)-1H-imidazo[4,5-b]pyrazin-2(3H)-one] as the molecule, how does the IC50 read?
Answer: > 1000 nM

Question: Which IC50 does the source give for `COc1cc(-c2cnc3[nH]cc(-c4ccc5[nH]ccc5c4)c3c2)ccc1OCCN(C)C` [Example 35, 2-(4-(3-(1H-indol-5-yl)-1H-pyrrolo[2,3-b]pyridin-5-yl)-2-methoxyphenoxy)-N,N-dimethylethanamine] here?
Answer: > 1000 nM

Question: How did the IC50 turn out when `c1cc2cc(-c3c[nH]c4ncc(-c5ccc(CN6CCOCC6)cc5)cc34)ccc2[nH]1` [Example 184, 4-(4-(3-(1H-indol-5-yl)-1H-pyrrolo[2,3-b]pyridin-5-yl)benzyl)morpholine] was run?
Answer: < 100 nM

Question: Which IC50 does the source give for `COc1cc(-c2cnc3c(c2)C(=Cc2cccc(C#N)c2)C(=O)N3)cc(OC)c1OC` [Example 134, 3-[2-oxo-5-(3,4,5-trimethoxy-phenyl)-1,2-dihydro-pyrrolo[2,3-b]pyridin-3-ylidenemethyl]-benzonitrile] here?
Answer: > 1000 nM

Question: How did the IC50 turn out when `CC(C)(C)OC(=O)N1CCN(C(=O)c2ccc(-c3cnc4[nH]cc(-c5ccc(C(N)=O)cc5)c4c3)cc2)CC1` [Example 148, 4-{4-[3-(4-carbamoyl-phenyl)-1H-pyrrolo[2,3-b]pyridin-5-yl]-benzoyl}-piperazine-1-carboxylic acid tert-butyl ester] was run?
Answer: < 100 nM

Question: `CC(=O)N1CCN(Cc2ccc(-c3cnc4[nH]cc(-c5ccc6[nH]ccc6c5)c4c3)cc2)CC1` [Example 140, 1-(4-{4-[3-(1H-indol-5-yl)-1H-pyrrolo[2,3-b]pyridin-5-yl]-benzyl}-piperazin-1-yl)-ethanone] was tested. Which IC50 did it give?
Answer: > 1000 nM

Question: `Cc1cc2cc(-n3c(=O)[nH]c4ncc(-c5ccncc5)nc43)ccc2[nH]1` [Example 85, 1-(2-methyl-1H-indol-5-yl)-6-(pyridin-4-yl)-1H-imidazo[4,5-b]pyrazin-2(3H)-one] was tested. Which IC50 did it give?
Answer: > 1000 nM

Question: `COc1cc(-c2cnc3[nH]c(=O)n(C4CCCC4)c3n2)cc(OC)c1OC` [Example 74, 1-cyclopentyl-6-(3,4,5-trimethoxyphenyl)-1H-imidazo[4,5-b]pyrazin-2(3H)-one] was tested. Which IC50 did it give?
Answer: < 100 nM

Question: For `O=c1[nH]c2ncc(-c3ccc4cc[nH]c4c3)nc2n1-c1ccc2[nH]ccc2c1` [Example 56, 1-(1H-indol-5-yl)-6-(1H-indol-6-yl)-1H-imidazo[4,5-b]pyrazin-2(3H)-one], which IC50 is on record?
Answer: > 1000 nM

Question: How did the IC50 turn out when `CN1CCN(Cc2ccc(-c3cnc4[nH]cc(-c5ccc(C(F)(F)F)cc5)c4c3)cc2)CC1` [Example 170] was run?
Answer: > 1000 nM

Question: Which IC50 does the source give for `O=c1[nH]c2ncc(-c3cc(F)c(O)c(F)c3)nc2n1-c1ccc2[nH]ccc2c1` [Example 59, 6-(3,5-difluoro-4-hydroxyphenyl)-1-(1H-indol-5-yl)-1H-imidazo[4,5-b]pyrazin-2(3H)-one] here?
Answer: < 100 nM

Question: Which IC50 does the source give for `COc1cc(-c2nc3c(nc2Cl)[nH]c(=O)n3CC2CC2)cc(OC)c1OC` [Example 119, 5-chloro-1-(cyclopropylmethyl)-6-(3,4,5-trimethoxyphenyl)-1H-imidazo[4,5-b]pyrazin-2(3H)-one] here?
Answer: > 1000 nM

Question: `COc1ccc(-n2c(=O)[nH]c3ncc(-c4ccc(OC)c(OC)c4)nc32)cc1` [Example 69, 6-(3,4-dimethoxyphenyl)-1-(4-methoxyphenyl)-1H-imidazo[4,5-b]pyrazin-2(3H)-one] was tested. Which IC50 did it give?
Answer: > 1000 nM

Question: With `CS(=O)(=O)Nc1ccc(-c2cnc3[nH]cc(-c4ccc5[nH]ccc5c4)c3c2)cc1` [Example 11, N-(4-(3-(1H-indol-5-yl)-1H-pyrrolo[2,3-b]pyridin-5-yl)phenyl)methanesulfonamide] as the molecule, how does the IC50 read?
Answer: < 100 nM

Question: With `CC(C)(C)CC(=O)N1CCN(Cc2ccc(-c3cnc4[nH]cc(-c5ccc6[nH]ccc6c5)c4c3)cc2)CC1` [Example 192] as the molecule, how does the IC50 read?
Answer: < 100 nM

Question: How did the IC50 turn out when `COc1cc(-c2cnc3c(c2)C(Cc2ccccc2)C(=O)N3)cc(OC)c1OC` (stereo not shown) [Example 137, 3-benzyl-5-(3,4,5-trimethoxy-phenyl)-1,3-dihydro-pyrrolo[2,3-b]pyridin-2-one] was run?
Answer: > 1000 nM

Question: `CN1CCN(Cc2ccc(-c3cnc4[nH]cc(-c5ccc6[nH]ccc6c5)c4c3)cc2)CC1=O` [Example 141, 4-{4-[3-(1H-indol-5-yl)-1H-pyrrolo[2,3-b]pyridin-5-yl]-benzyl}-1-methyl-piperazin-2-one] was tested. Which IC50 did it give?
Answer: < 100 nM

Question: For `Cc1cc(C)cc(-c2cnc3[nH]c(=O)n(-c4ccc5scnc5c4)c3n2)c1` [Example 99, 1-(benzo[d]thiazol-5-yl)-6-(3,5-dimethylphenyl)-1H-imidazo[4,5-b]pyrazin-2(3H)-one], which IC50 is on record?
Answer: > 1000 nM

Same assay, conditions: read-out: MK3 IC50

Question: Which IC50 does the source give for `CN1CCN(Cc2ccc(-c3cnc4[nH]cc(-c5ccc6c(O)ccnc6c5)c4c3)cc2)CC1` [Example 178] here?
Answer: 100 to 1000 nM

Question: Which IC50 does the source give for `COc1cc(-c2cnc3c(c2)/C(=C\c2ccncc2)C(=O)N3)cc(OC)c1OC` [Example 129, (E)- and (Z)-3-pyridin-4-ylmethylene-5-(3,4,5-trimethoxy-phenyl)-1,3-dihydro-pyrrolo[2,3-b]pyridin-2-one] here?
Answer: > 1000 nM

Question: Which IC50 does the source give for `COc1cc(-c2cnc3[nH]c(=O)n(C4CCCC4)c3n2)ccc1N` [Example 118, 6-(4-amino-3-methoxyphenyl)-1-cyclopentyl-1H-imidazo[4,5-b]pyrazin-2(3H)-one] here?
Answer: 100 to 1000 nM

Question: `CN1CCN(Cc2ccc(-c3cnc4[nH]cc(-c5ccc6scnc6c5)c4c3)cc2)CC1` [Example 175] was tested. Which IC50 did it give?
Answer: 100 to 1000 nM

Question: How did the IC50 turn out when `COc1cc(-c2cnc3[nH]c(=O)n(-c4ccc5[nH]ncc5c4)c3n2)cc(OC)c1OC` [Example 83, 1-(1H-indazol-5-yl)-6-(3,4,5-trimethoxyphenyl)-1H-imidazo[4,5-b]pyrazin-2(3H)-one] was run?
Answer: 100 to 1000 nM

Question: How did the IC50 turn out when `CN1CCN(C(=O)c2cccc(-c3cnc4[nH]cc(-c5ccc6[nH]ccc6c5)c4c3)c2)CC1` [Example 147, {3-[3-(1H-indol-5-yl)-1H-pyrrolo[2,3-b]pyridin-5-yl]-phenyl}-(4-methyl-piperazin-1-yl)-methanone] was run?
Answer: < 100 nM

Question: How did the IC50 turn out when `[2H]c1cc2cc(-c3c[nH]c4ncc(-c5ccc(CN6CCN(C)CC6)cc5)cc34)ccc2[nH]1` [Example 181] was run?
Answer: < 100 nM

Question: `CC(C)(C)C(=O)N1CCN(Cc2ccc(-c3cnc4[nH]cc(-c5ccc6[nH]ccc6c5)c4c3)cc2)CC1` [Example 191] was tested. Which IC50 did it give?
Answer: 100 to 1000 nM
